{
  "source": "PubChem BioAssay AID1259411",
  "about": "(Chemical Carcinogenesis Research Information System (CCRIS), 2018)",
  "tested_on": "rodent carcinogenicity bioassays, tumor incidence",
  "assay": "CCRIS carcinogenicity studies",
  "excerpt": "The CCRIS database contains chemical records with carcinogenicity, mutagenicity, tumor promotion, and tumor inhibition test results. It was developed by the National Cancer Institute (NCI). Data are derived from studies cited in primary journals, current awareness tools, NCI reports, and other sources. Test results have been reviewed by experts in carcinogenesis and mutagenesis.\nCCRIS provides historical information from the years 1985 - 2011. It is no longer updated.\nThis is an archive assay for CCRIS carcinogenicity studies.",
  "note": "Calls of active or inactive are those of the source. The rule behind the calls is not given here.",
  "data": [
    {"smiles": "O=C1OC2(c3ccccc31)c1cc(I)c(O)c(I)c1Oc1c2cc(I)c(O)c1I", "values": [
      {"measurement": "carcinogen call", "setting": "Species: MOUSE, Strain/Sex: CD-1/FEMALE, Route: ORAL, Dose: 0, 0.3, 1.0, 3.0% IN DIET FOR 24 MO (STUDY DURATION: 24 MO), Dose: 0, 0.3, 1.0, 3.0% IN DIET FOR 24 MO (STUDY DURATION: 24 MO)", "value": "inactive; negative"},
      {"measurement": "carcinogen call", "setting": "Species: MOUSE, Strain/Sex: CD-1/MALE, Route: ORAL, Dose: 0, 0.3, 1.0, 3.0% IN DIET FOR 24 MO (STUDY DURATION: 24 MO), Dose: 0, 0.3, 1.0, 3.0% IN DIET FOR 24 MO (STUDY DURATION: 24 MO)", "value": "inactive; negative"},
      {"measurement": "carcinogen call", "setting": "Species: MOUSE, Strain/Sex: ICR/FEMALE, Route: DERMAL, Dose: 0, 1 MG IN 0.1 ML DISTILLED WATER 2/WK FOR A MEAN TOTAL DOSE OF 133 MG (STUDY DURATION: 18 MO)", "value": "inactive; negative"},
      {"measurement": "carcinogen call", "setting": "Species: MOUSE, Strain/Sex: ICR/MALE, Route: DERMAL, Dose: 0, 1 MG IN 0.1 ML DISTILLED WATER 2/WK FOR A MEAN TOTAL DOSE OF 133 MG (STUDY DURATION: 18 MO)", "value": "inactive; negative"},
      {"measurement": "carcinogen call", "setting": "Species: RAT, Strain/Sex: CD-1/FEMALE, Route: ORAL, Dose: 0, 0.1, 0.5, 1% IN DIET FOR 30 MO BEGINNING IN UTERO WITH PARENTS GIVEN THE SAME DIETARY DOSES (STUDY DURATION: 30 MO), Dose: 0, 0.1, 0.5, 1% IN DIET FOR 30 MO BEGINNING IN UTERO WITH PARENTS GIVEN THE SAME DIETARY DOSES (STUDY DURATION: 30 MO)", "value": "inactive; negative"},
      {"measurement": "carcinogen call", "setting": "Species: RAT, Strain/Sex: CD-1/FEMALE, Route: ORAL, Dose: 0, 4% IN DIET FOR 30 MO BEGINNING IN UTERO WITH PARENTS GIVEN THE SAME DIETARY DOSES (STUDY DURATION: 30 MO)", "value": "inactive; negative"},
      {"measurement": "carcinogen call", "setting": "Species: RAT, Strain/Sex: CD-1/MALE, Route: ORAL, Dose: 0, 0.1, 0.5, 1% IN DIET FOR 30 MO BEGINNING IN UTERO WITH PARENTS GIVEN THE SAME DIETARY DOSES (STUDY DURATION: 30 MO), Dose: 0, 0.1, 0.5, 1% IN DIET FOR 30 MO BEGINNING IN UTERO WITH PARENTS GIVEN THE SAME DIETARY DOSES (STUDY DURATION: 30 MO)", "value": "inactive; negative"},
      {"measurement": "carcinogen call", "setting": "Species: RAT, Strain/Sex: CD-1/MALE, Route: ORAL, Dose: 0, 4% IN DIET FOR 30 MO BEGINNING IN UTERO WITH PARENTS GIVEN THE SAME DIETARY DOSES (STUDY DURATION: 30 MO), Tumor Site: Type of Lesion: THYROID: ADENOMA", "value": "active; positive"}
    ]},
    {"smiles": "O=C/C(Br)=C/c1ccccc1", "values": [
      {"measurement": "carcinogen call", "setting": "Species: MOUSE, Strain/Sex: SLC:DDY/FEMALE, Route: DERMAL, Dose: 0, 0.25, 1, 4% IN OLIVE OIL 2/WK FOR 79 WK (STUDY DURATION: 79 WK), Dose: 0, 0.25, 1, 4% IN OLIVE OIL 2/WK FOR 79 WK (STUDY DURATION: 79 WK)", "value": "inactive; negative"}
    ]},
    {"smiles": "CCN(CC)CCNc1ccc(CO)c2sc3ccccc3c(=O)c12", "values": [
      {"measurement": "carcinogen call", "setting": "Species: MOUSE, Route: INTRAMUSCULAR, Tumor Site: Type of Lesion: LIVER", "value": "active; positive"}
    ]},
    {"smiles": "CCCC1O[C@@H]2C[C@H]3[C@@H]4CCC5=CC(=O)C=C[C@]5(C)[C@H]4[C@@H](O)C[C@]3(C)[C@]2(C(=O)CO)O1", "note": "(some centres undefined)", "values": [
      {"measurement": "carcinogen call", "setting": "Species: RAT, Strain/Sex: SPRAGUE-DAWLEY/MALE, Route: ORAL, Dose: 0, 5 UG/ML IN DRINKING WATER FOR AN AVERAGE DAILY DOSE OF 46.6 UG/KG FOR 104 WK (STUDY DURATION: 104 WK), Tumor Site: Type of Lesion: LIVER: HEPATOCELLULAR ADENOMA OR CARCINOMA", "value": "active; positive"}
    ]},
    {"smiles": "CCN(N=O)C(=O)NCC(C)=O", "values": [
      {"measurement": "carcinogen call", "setting": "Species: RAT, Strain/Sex: F344/FEMALE, Route: GAVAGE, Dose: 0, 9.5, 19 MG/ML IN CORN OIL/ETHYL ACETATE (2:1) 2/WK FOR 30 WK (STUDY DURATION: LIFETIME), Dose: 0, 9.5, 19 MG/ML IN CORN OIL/ETHYL ACETATE (2:1) 2/WK FOR 30 WK (STUDY DURATION: LIFETIME), Tumor Site: Type of Lesion: LUNG: TUMOR, MAMMARY GLAND: CARCINOMA, UTERUS: TUMOR, FORESTOMACH: TUMOR, SPLEEN: TUMOR, ZYMBAL GLAND: TUMOR, SMALL INTE, Tumor Site: Type of Lesion: LUNG: TUMOR, MAMMARY GLAND: CARCINOMA, UTERUS: TUMOR, FORESTOMACH: TUMOR, SPLEEN: TUMOR, ZYMBAL GLAND: TUMOR, SMALL INTE", "value": "active; positive"},
      {"measurement": "carcinogen call", "setting": "Species: RAT, Strain/Sex: F344/FEMALE, Route: ORAL, Dose: 0, 40, 80 MG/L IN DRINKING WATER 5 D/WK FOR 30 WK (STUDY DURATION: LIFETIME), Dose: 0, 40, 80 MG/L IN DRINKING WATER 5 D/WK FOR 30 WK (STUDY DURATION: LIFETIME), Tumor Site: Type of Lesion: LIVER: TUMOR, LUNG: TUMOR, MAMMARY GLAND: CARCINOMA, UTERUS: TUMOR, THYROID: FOLLICULAR TUMOR, COLON: TUMOR, NERVOUS SYS, Tumor Site: Type of Lesion: LIVER: TUMOR, LUNG: TUMOR, MAMMARY GLAND: CARCINOMA, UTERUS: TUMOR, THYROID: FOLLICULAR TUMOR, COLON: TUMOR, NERVOUS SYS", "value": "active; positive"},
      {"measurement": "carcinogen call", "setting": "Species: RAT, Strain/Sex: F344/MALE, Route: GAVAGE, Dose: 0, 9.5, 19 MG/ML IN CORN OIL/ETHYL ACETATE (2:1) 2/WK FOR 30 WK (STUDY DURATION: LIFETIME), Dose: 0, 9.5, 19 MG/ML IN CORN OIL/ETHYL ACETATE (2:1) 2/WK FOR 30 WK (STUDY DURATION: LIFETIME), Tumor Site: Type of Lesion: LIVER: TUMOR, LUNG: TUMOR, MESOTHELIUM: TUMOR, NERVOUS SYSTEM: TUMOR, THYROID: FOLLICULAR TUMOR, FORESTOMACH: TUMOR, SPL, Tumor Site: Type of Lesion: LIVER: TUMOR, LUNG: TUMOR, MESOTHELIUM: TUMOR, NERVOUS SYSTEM: TUMOR, THYROID: FOLLICULAR TUMOR, FORESTOMACH: TUMOR, SPL", "value": "active; positive"},
      {"measurement": "carcinogen call", "setting": "Species: RAT, Strain/Sex: F344/MALE, Route: ORAL, Dose: 0, 40, 80 MG/L IN DRINKING WATER FOR 5 D/WK FOR 30 WK (STUDY DURATION: LIFETIME), Dose: 0, 40, 80 MG/L IN DRINKING WATER FOR 5 D/WK FOR 30 WK (STUDY DURATION: LIFETIME), Tumor Site: Type of Lesion: LUNG: TUMOR, THYROID: FOLLICULAR TUMOR, COLON: TUMOR, MESOTHELIUM: TUMOR, NERVOUS SYSTEM: TUMOR, SKIN: TUMOR, ZYMBAL GLA, Tumor Site: Type of Lesion: LUNG: TUMOR, THYROID: FOLLICULAR TUMOR, COLON: TUMOR, MESOTHELIUM: TUMOR, NERVOUS SYSTEM: TUMOR, SKIN: TUMOR, ZYMBAL GLA", "value": "active; positive"}
    ]},
    {"smiles": "Nc1cc(Cl)cc(C(=O)O)c1Cl", "values": [
      {"measurement": "carcinogen call", "setting": "Species: MOUSE, Strain/Sex: B6C3F1/FEMALE, Route: ORAL, Dose: 0, 10000, 20000 PPM IN DIET FOR 80 WK (STUDY DURATION: 91-92 WK), Dose: 0, 10000, 20000 PPM IN DIET FOR 80 WK (STUDY DURATION: 91-92 WK), Tumor Site: Type of Lesion: LIVER: HEPATOCELLULAR CARCINOMA", "value": "active; positive"},
      {"measurement": "carcinogen call", "setting": "Species: MOUSE, Strain/Sex: B6C3F1/MALE, Route: ORAL, Dose: 0, 10000, 20000 PPM IN DIET FOR 80 WK (STUDY DURATION: 91-92 WK), Dose: 0, 10000, 20000 PPM IN DIET FOR 80 WK (STUDY DURATION: 91-92 WK), Tumor Site: Type of Lesion: LIVER: HEPATOCELLULAR CARCINOMA", "value": "equivocal"},
      {"measurement": "carcinogen call", "setting": "Species: RAT, Strain/Sex: OSBORNE-MENDEL/FEMALE, Route: ORAL, Dose: 0, 10000, 20000 PPM IN DIET FOR 80 WK (STUDY DURATION: 112-113 WK ), Dose: 0, 10000, 20000 PPM IN DIET FOR 80 WK (STUDY DURATION: 112-113 WK )", "value": "inactive; negative"},
      {"measurement": "carcinogen call", "setting": "Species: RAT, Strain/Sex: OSBORNE-MENDEL/MALE, Route: ORAL, Dose: 0, 10000, 20000 PPM IN DIET FOR 80 WK (STUDY DURATION: 112-113 WK), Dose: 0, 10000, 20000 PPM IN DIET FOR 80 WK (STUDY DURATION: 112-113 WK)", "value": "inactive; negative"}
    ]}
  ]
}
